Assay results from PMC12257073 (Cancer Research Communications, 2025).
Like-named read-outs stand apart in the source and are kept apart here.

How the values were obtained:
TP53-mutated AML = details: cited from earlier work
[1] = Adverse events (treatment-related and all-cause) and dose-limiting toxicities, NCI CTCAE version 4.0; details: all treated patients, TP-0903 + decitabine
Protocol: The phase 1b portion of the study used a standard 3 + 3 dose-escalation design with a starting dose level 1 (DL1) of 37 mg oral daily TP-0903 (Supplementary Table S2) based on experience with 50 mg oral daily as a single agent in patients with solid tumors ([25]). Dose-limiting toxicities (DLT) were evaluated to establish the dose brought forward for an expansion cohort (phase 2). Seven patients were enrolled in the phase 1b study, which was completed in January 2021 with the decision to move forward with an expansion cohort of 37 mg oral daily. Across the phase 1b and phase 2 studies, 15 patients were enrolled and started on 37 mg TP-0903 oral daily on days 1 to 21 (group 1). […] One additional patient was enrolled at this time but was inadvertently started on 25 mg TP-0903 oral daily on days 1 to 21. […] In May 2021, an amendment was approved to allow enrollment of a new group 2 at 25mg oral daily on days 1 to 21 of TP-0903 (DL-1) in stage 2 of the phase 2 study.
Clinical response was assessed according to the modified 2017 European LeukemiaNet AML criteria ([26]). The primary endpoint was achievement of CR within six cycles of therapy. Secondary endpoints included toxicity, duration of response, OS, and the proportion of eligible patients who effectively transitioned to allogeneic stem cell transplantation. Exploratory endpoints included pharmacokinetics (PK), correlative genetic, and biochemical data; correlations between morphologic remission, spectral flow cytometry, and mutational remission; and duration of remission or survival. […] Adverse events (AE) were graded according to the NCI Common Terminology Criteria for Adverse Events version 4.0 ([27]).

Nc1ncn([C@@H]2O[C@H](CO)[C@@H](O)[C@H]2O)c(=O)n1 [azacitidine]
Median OS (TP53-mutated AML; TP53-mutated patients, azacitidine): 7.9 months

Nc1ncn([C@H]2C[C@H](O)[C@@H](CO)O2)c(=O)n1 [decitabine, reference compound]
Serious AEs related to decitabine [1]: only one patient had a serious AE related to decitabine (grade 3 pneumonia)

c1cn2cc(-c3ccc4cn[nH]c4c3)nc(Nc3ccc(N4CCOCC4)cc3)c2n1 [entospletinib]
CR + CRi rate (TP53-mutated AML; entospletinib and a 10-day course of decitabine, complex karyotype AML with a TP53 mutation): 17.1%
Median OS (TP53-mutated AML; entospletinib combined with decitabine, patients with mutant TP53): 6.5 months

COCC1(CO)C(=O)C2CCN1CC2 (stereo not drawn) [eprenetapopt]
Median OS (TP53-mutated AML; eprenetapopt combined with azacitidine): less than 1 year
CR rate (TP53-mutated AML; eprenetapopt, mutant p53): ≤ 17%

CC1(C)CCC(CN2CCN(c3ccc(C(=O)NS(=O)(=O)c4ccc(NCC5CCOCC5)c([N+](=O)[O-])c4)c(Oc4cnc5[nH]ccc5c4)c3)CC2)=C(c2ccc(Cl)cc2)C1 [venetoclax]
Median OS (TP53-mutated AML; venetoclax added to HMAs, no difference vs HMA alone): approximately 5.2 months
CR + CRi rate (TP53-mutated AML; venetoclax added to HMAs): 55%
Median OS (TP53-mutated AML; venetoclax and azacitidine, TP53-mutated patients with poor-risk cytogenetics): 5.2 months
Median OS (TP53-mutated AML; venetoclax in combination with azacitidine, older or medically unfit patients with AML): ≤ 17.5 months
CR + CRi rate (TP53-mutated AML; venetoclax plus azacitidine, patients with mutant TP53): 55%

magrolimab
Median OS (TP53-mutated AML; magrolimab and azacitidine, TP53-mutated patients): 9.8 months
